Measurements from patent publication US6468998B1, “Pyrrolidine compounds and medicinal utilization thereof” (Mitsubishi Pharma Corporation, priority 1998, dated 2002).
Counter-ions that a name gives are not always drawn.

melting point	Structure (SMILES)
214 to 215 °C	O=C(N[C@H]1CCN(CCc2ccc(C(F)(F)F)cc2)C1)C12CC3CC(CC(C3)C1)C2 (as salt: hydrochloride) (hydrate or solvate) [Example 5, (S)-N-(1-(2-(4-trifluoromethylphenyl)ethyl)pyrrolidin-3-yl)-1-adamantanecarboxamide]
160 to 163 °C	O=C(N[C@H]1CCN(CCc2cccc(C(F)(F)F)c2)C1)C12CC3CC(CC(C3)C1)C2 (as salt: hydrochloride) (hydrate or solvate) [Example 11, (S)-N-(1-(2-(3-trifluoromethylphenyl)ethyl)pyrrolidin-3-yl)-1-adamantanecarboxamide]
127 to 128 °C	O=C(N[C@H]1CCN(CCc2ccccc2C(F)(F)F)C1)C12CC3CC(CC(C3)C1)C2 (as salt: hydrochloride) (hydrate or solvate) [Example 12, (S)-N-(1-(2-(2-trifluoromethylphenyl)ethyl)pyrrolidin-3-yl)-1-adamantanecarboxamide]
241 to 243 °C	O=C(N[C@H]1CCN(CC2Cc3ccccc3C2)C1)C12CC3CC(CC(C3)C1)C2 (as salt: hydrochloride) (hydrate or solvate) [Example 18, (S)-N-(1-((2,3-dihydroinden-2-yl)methyl)pyrrolidin-3-yl)-1-adamantanecarboxamide]
140 to 142 °C	O=C(N[C@H]1CCN(CC2CCCc3ccccc32)C1)C12CC3CC(CC(C3)C1)C2 (stereo partly drawn) (as salt: hydrochloride) (hydrate or solvate) [Example 20, (S)-N-(1-((1,2,3,4-tetrahydronaphthalen-1-yl)methyl)pyrrolidin-3-yl)-1-adamantanecarboxamide]
278 to 279 °C	O=C(N[C@H]1CCN(C2Cc3ccccc3C2)C1)C12CC3CC(CC(C3)C1)C2 (as salt: hydrochloride) (hydrate or solvate) [Example 22, (S)-N-(1-(2,3-dihydroinden-2-yl)pyrrolidin-3-yl)-1-adamantanecarboxamide]
201 to 202 °C	O=C(N[C@H]1CCN(CCc2ccccc2)C1)NC12CC3CC(CC(C3)C1)C2 (as salt: hydrochloride) (hydrate or solvate) [Example 51, (S)-1-(1-adamantyl)-3-(1-(2-phenylethyl)pyrrolidin-3-yl)urea]
253 to 254 °C	CN(C(=O)C12CC3CC(CC(C3)C1)C2)[C@H]1CCN(CCc2ccc(F)cc2)C1 (as salt: hydrochloride) (hydrate or solvate) [Example 56, (S)-N-methyl-N-(1-(2-(4-fluorophenyl)ethyl)pyrrolidin-3-yl)-1-adamantanecarboxamide]
252 to 253 °C	CN(C(=O)C12CC3CC(CC(C3)C1)C2)[C@H]1CCN(CCc2cccc(F)c2)C1 (as salt: hydrochloride) (hydrate or solvate) [Example 65, (S)-N-methyl-N-(1-(2-(3-fluorophenyl)ethyl)pyrrolidin-3-yl)-1-adamantanecarboxamide]
264 to 265 °C	CN(C(=O)C12CC3CC(CC(C3)C1)C2)[C@@H]1CCN(CCc2ccc(F)cc2)C1 (as salt: hydrochloride) (hydrate or solvate) [Example 68, (R)-N-methyl-N-(1-(2-(4-fluorophenyl)ethyl)pyrrolidin-3-yl)-1-adamantanecarboxamide]
110 to 113 °C (dec.)	O=C(NC1CCN(CCc2ccc(F)cc2)C1)N1CC2CC3CC1C[C@@H](C3)C2 (stereo partly drawn) (as salt: hydrochloride) (hydrate or solvate) [Example 69, (S)-N-(1-(2-(4-fluorophenyl)ethyl)pyrrolidin-3-yl)-(4-azatricyclo[4.3.1.1(3,8)]undecan-4-yl)carboxamide]
139 to 141 °C	O=C(N[C@H]1CCN(C[C@H](O)c2ccccc2)C1)C12CC3CC(CC(C3)C1)C2 (as salt: hydrochloride) (hydrate or solvate) [Example 70, (S)-N-(1-((R)-2-hydroxy-2-phenylethyl)pyrrolidin-3-yl)-1-adamantanecarboxamide]
149 to 151 °C	O=C(N[C@H]1CCN(C[C@@H](O)c2ccccc2)C1)C12CC3CC(CC(C3)C1)C2 (as salt: hydrochloride) (hydrate or solvate) [Example 71, (S)-N-(1-((S)-2-hydroxy-2-phenylethyl)pyrrolidin-3-yl)-1-adamantanecarboxamide]
241 to 242 °C	CN(C(=O)C12CC3CC(CC(C3)C1)C2)[C@H]1CCN(CCc2ccccc2F)C1 (as salt: hydrochloride) [Example 66, (S)-N-methyl-N-(1-(2-(2-fluorophenyl)ethyl)pyrrolidin-3-yl)-1-adamantanecarboxamide]
156 to 158 °C	O=C(N[C@H]1CCN(CCc2ccc(F)cc2)C1)C(c1ccccc1)c1ccccc1 (as salt: oxalate) (hydrate or solvate) [Example 24, (S)-N-(1-(2-(4-fluorophenyl)ethyl)pyrrolidin-3-yl)diphenylacetamide]
191 to 192 °C	O=C(N[C@H]1CCN(CCc2ccccc2)C1)C(c1ccccc1)c1ccccc1 (as salt: oxalate) [Example 23, (S)-N-(1-(2-phenylethyl)pyrrolidin-3-yl)diphenylacetamide]
119 to 121 °C	O=C(N[C@H]1CCN(CCc2ccccc2)C1)C12CC3CC(CC(C3)C1)C2 [Example 1, (S)-N-(1-(2-phenylethyl)pyrrolidin-3-yl)-1-adamantanecarboxamide]
94 to 95 °C	O=C(N[C@H]1CCN(CCc2ccc(Cl)cc2)C1)C12CC3CC(CC(C3)C1)C2 [Example 3, (S)-N-(1-(2-(4-chlorophenyl)ethyl)pyrrolidin-3-yl)-1-adamantanecarboxamide]
81 to 83 °C	COc1ccc(CCN2CC[C@H](NC(=O)C34CC5CC(CC(C5)C3)C4)C2)cc1 [Example 4, (S)-N-(1-(2-(4-methoxyphenyl)ethyl)pyrrolidin-3-yl)-1-adamantanecarboxamide]
104 to 105 °C	N#Cc1ccc(CCN2CC[C@H](NC(=O)C34CC5CC(CC(C5)C3)C4)C2)cc1 [Example 6, (S)-N-(1-(2-(4-cyanophenyl)ethyl)pyrrolidin-3-yl)-1-adamantanecarboxamide]
87 to 89 °C	O=C(N[C@H]1CCN(CCc2cccc(F)c2)C1)C12CC3CC(CC(C3)C1)C2 [Example 9, (S)-N-(1-(2-(3-fluorophenyl)ethyl)pyrrolidin-3-yl)-1-adamantanecarboxamide]
106 to 108 °C	O=C(N[C@H]1CCN(CCc2ccccc2F)C1)C12CC3CC(CC(C3)C1)C2 [Example 10, (S)-N-(1-(2-(2-fluorophenyl)ethyl)pyrrolidin-3-yl)-1-adamantanecarboxamide]
130 to 132 °C	O=C(N[C@H]1CCN(Cc2ccccc2)C1)C12CC3CC(CC(C3)C1)C2 [Example 13, (S)-N-(1-benzylpyrrolidin-3-yl)-1-adamantanecarboxamide]
118 to 120 °C	O=C(N[C@H]1CCN(CCCc2ccccc2)C1)C12CC3CC(CC(C3)C1)C2 [Example 14, (S)-N-(1-(3-phenylpropyl)pyrrolidin-3-yl)-1-adamantanecarboxamide]
114 to 115 °C	O=C(N[C@H]1CCN(CCCc2ccc(F)cc2)C1)C12CC3CC(CC(C3)C1)C2 [Example 15, (S)-N-(1-(3-(4-fluorophenyl)propyl)pyrrolidin-3-yl)-1-adamantanecarboxamide]
